pIC50: −log10 of the molar value. Like-named read-outs stand apart in the source and are kept apart here.

In general, pIC50 refers to the IC50 on a negative log10 scale, so that one unit is a factor of ten.

Assay [1] has as its target human TLR9 (Homo sapiens (Human), UniProt Q9NR96). In words: TLR9 inhibition reporter assay (HEK-Blue SEAP reporter, ODN2006 stimulation).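 Also: SEAP reporter under IFN-β minimal promoter with five NF-κB and AP-1 sites, 22 h incubation, compounds 0.05 nM–50 µM, inhibition relative to agonist plus DMSO versus known inhibitor.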
Assay [2] concerns the target human TLR7 (Homo sapiens (Human), UniProt Q9NYK1). In words: TLR7 inhibition reporter assay (HEK-Blue SEAP reporter, gardiquimod stimulation). The class given is cell-based. To be noted: HEK-Blue cells overexpressing human TLR7, gardiquimod 7.5 μM. (Reporter assays use an easily measured gene product as a stand-in for the process of interest.)
Assay [3] addresses human TLR8 (Homo sapiens (Human), UniProt Q9NR97). The assay is described as follows: TLR8 inhibition reporter assay (HEK-Blue SEAP reporter, R848 stimulation).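 Also: SEAP driven by IFN-β minimal promoter with NF-κB and AP-1 sites, 22 h incubation, compounds 0.05 nM–50 µM, inhibition scaled between agonist plus DMSO and reference inhibitor wells.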
Protocol: HEK-Blue™-cells (Invivogen) overexpressing human TLR7, TLR8 or TLR9 receptors were used for screening inhibitors of these receptors using an inducible SEAP (secreted embryonic alkaline phosphatase) reporter gene under the control of the IFN-β minimal promoter fused to five NF-κB and AP-1-binding sites. Briefly, cells are seeded into Greiner 384 well plates (15000 cells per well for TLR7, 20,000 for TLR8 and 25,000 for TLR9) and then treated with test compounds in DMSO to yield a final dose response concentration range of 0.05 nM-50 μM. After a 30 minute compound pre-treatment at room temperature, the cells are then stimulated with a TLR7 ligand (gardiquimod at a final concentration of 7.5 μM), TLR8 ligand (R848 at a final concentration of 15.9 μM) or TLR9 ligand (ODN2006 at a final concentration of 5 nM) to activate NF-κB and AP-1 which induce the production of SEAP. After a 22 hour incubation at 37° C., 5% CO2, SEAP levels are determined with the addition of HEK-Blue™ Detection reagent (Invivogen), a cell culture medium that allows for detection of SEAP, according to manufacturer's specifications.
[4] abbreviates: read-out: TLR9 IC50, HEK-Blue cells overexpressing human TLR9, ODN2006 5 nM, SEAP reporter.
Where [5] appears, read: read-out: TLR8 IC50, HEK-Blue cells overexpressing human TLR8, R848 15.9 μM, SEAP reporter.

Chain of human TLR7 (Q9NYK1 27-1049): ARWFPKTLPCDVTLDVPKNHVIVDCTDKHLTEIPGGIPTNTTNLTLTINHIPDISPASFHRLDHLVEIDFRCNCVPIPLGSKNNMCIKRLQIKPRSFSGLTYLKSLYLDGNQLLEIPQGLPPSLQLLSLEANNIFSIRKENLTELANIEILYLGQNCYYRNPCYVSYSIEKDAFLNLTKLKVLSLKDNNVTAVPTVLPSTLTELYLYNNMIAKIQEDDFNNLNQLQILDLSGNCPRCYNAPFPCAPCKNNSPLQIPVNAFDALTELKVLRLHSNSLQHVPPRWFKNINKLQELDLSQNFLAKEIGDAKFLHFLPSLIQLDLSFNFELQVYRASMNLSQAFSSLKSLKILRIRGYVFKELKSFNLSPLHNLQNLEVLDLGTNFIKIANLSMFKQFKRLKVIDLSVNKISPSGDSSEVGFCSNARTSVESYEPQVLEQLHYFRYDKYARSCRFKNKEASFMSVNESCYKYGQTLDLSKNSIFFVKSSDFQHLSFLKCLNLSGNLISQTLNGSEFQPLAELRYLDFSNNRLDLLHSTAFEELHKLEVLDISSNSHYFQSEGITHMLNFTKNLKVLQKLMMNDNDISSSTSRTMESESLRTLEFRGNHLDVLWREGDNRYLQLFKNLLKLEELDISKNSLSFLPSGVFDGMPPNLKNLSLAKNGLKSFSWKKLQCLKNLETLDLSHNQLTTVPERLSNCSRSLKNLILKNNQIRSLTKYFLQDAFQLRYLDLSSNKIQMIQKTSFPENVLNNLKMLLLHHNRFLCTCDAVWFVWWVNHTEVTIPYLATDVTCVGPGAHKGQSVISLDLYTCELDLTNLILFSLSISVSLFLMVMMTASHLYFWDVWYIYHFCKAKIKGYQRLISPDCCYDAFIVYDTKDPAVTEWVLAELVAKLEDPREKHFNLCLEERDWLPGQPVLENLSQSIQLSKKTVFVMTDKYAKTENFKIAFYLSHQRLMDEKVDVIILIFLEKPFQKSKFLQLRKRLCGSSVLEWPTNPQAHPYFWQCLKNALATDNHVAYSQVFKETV
Chain of human TLR8 (Q9NR97 27-1041): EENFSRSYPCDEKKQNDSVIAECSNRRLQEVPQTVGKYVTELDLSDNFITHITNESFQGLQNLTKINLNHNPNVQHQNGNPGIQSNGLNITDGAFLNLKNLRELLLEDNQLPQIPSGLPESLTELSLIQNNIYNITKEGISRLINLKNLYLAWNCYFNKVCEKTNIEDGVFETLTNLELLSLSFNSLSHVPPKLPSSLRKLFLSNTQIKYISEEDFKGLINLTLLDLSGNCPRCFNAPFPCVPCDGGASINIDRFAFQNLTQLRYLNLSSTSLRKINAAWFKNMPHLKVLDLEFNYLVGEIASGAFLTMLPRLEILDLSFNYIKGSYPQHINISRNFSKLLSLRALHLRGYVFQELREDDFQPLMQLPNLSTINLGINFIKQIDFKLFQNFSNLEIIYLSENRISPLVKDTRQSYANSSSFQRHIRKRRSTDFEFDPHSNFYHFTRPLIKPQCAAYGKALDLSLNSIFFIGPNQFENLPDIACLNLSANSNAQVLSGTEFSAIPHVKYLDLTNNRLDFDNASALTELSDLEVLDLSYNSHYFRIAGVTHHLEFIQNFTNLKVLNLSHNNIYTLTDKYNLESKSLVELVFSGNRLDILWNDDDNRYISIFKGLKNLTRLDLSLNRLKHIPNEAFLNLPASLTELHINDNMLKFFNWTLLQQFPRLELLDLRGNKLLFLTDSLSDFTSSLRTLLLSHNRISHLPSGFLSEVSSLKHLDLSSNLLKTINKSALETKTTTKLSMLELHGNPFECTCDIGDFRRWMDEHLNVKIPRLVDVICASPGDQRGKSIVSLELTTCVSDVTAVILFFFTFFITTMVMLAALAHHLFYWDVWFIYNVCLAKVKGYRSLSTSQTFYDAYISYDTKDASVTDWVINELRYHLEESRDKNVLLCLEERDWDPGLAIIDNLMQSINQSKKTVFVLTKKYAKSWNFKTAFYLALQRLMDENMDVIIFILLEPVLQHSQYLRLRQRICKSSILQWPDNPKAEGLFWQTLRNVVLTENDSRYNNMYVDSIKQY
Chain of human TLR9 (Q9NR96 26-1032): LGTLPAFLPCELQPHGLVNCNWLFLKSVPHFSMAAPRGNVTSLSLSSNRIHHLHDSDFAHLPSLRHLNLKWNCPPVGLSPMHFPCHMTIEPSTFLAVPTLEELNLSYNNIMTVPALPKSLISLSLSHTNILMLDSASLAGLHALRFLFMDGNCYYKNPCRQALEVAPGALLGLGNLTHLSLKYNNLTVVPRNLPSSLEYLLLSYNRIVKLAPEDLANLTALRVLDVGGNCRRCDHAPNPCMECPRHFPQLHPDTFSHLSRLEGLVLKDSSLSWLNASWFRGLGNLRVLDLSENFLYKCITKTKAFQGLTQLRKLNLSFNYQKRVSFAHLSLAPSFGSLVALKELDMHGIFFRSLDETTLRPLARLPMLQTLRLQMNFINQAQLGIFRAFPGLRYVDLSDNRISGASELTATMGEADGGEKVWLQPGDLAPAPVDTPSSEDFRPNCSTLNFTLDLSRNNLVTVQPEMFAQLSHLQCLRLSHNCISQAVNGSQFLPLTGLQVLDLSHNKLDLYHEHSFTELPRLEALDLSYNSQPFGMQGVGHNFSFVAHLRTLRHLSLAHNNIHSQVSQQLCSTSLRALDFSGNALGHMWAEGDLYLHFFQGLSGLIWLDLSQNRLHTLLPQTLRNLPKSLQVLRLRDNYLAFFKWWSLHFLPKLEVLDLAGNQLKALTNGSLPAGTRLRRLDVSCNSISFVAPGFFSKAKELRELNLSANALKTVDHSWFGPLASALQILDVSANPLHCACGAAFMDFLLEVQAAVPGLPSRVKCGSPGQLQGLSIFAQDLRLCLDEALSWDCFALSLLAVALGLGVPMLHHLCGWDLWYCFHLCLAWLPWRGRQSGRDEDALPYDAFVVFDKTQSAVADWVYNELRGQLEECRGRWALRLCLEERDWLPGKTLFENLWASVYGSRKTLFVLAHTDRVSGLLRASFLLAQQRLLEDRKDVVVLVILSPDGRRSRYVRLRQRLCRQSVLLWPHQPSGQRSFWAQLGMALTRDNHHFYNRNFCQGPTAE

On to `Cc1cc(-c2[nH]c3ccc(C(C)(C)C(=O)N4CC5CC4CN5)cc3c2C(C)C)ccn1` (stereo not drawn) [Example 176, 1-(2,5-diazabicyclo[2.2.1]heptan-2-yl)-2-(3-isopropyl-2-(2-methylpyridin-4-yl)-1H-indol-5-yl)-2-methylpropan-1-one], for which the pIC50 in assay [1] (setting [4]) was 5.08; in assay [2] it was 6.59; in assay [3] (setting [5]) it was 6.68.

On to `Cc1cc(-c2[nH]c3ccc(C(C)(C)C(=O)N4CCC(OC5CCNCC5)CC4)cc3c2C(C)C)ccn1` [Example 177, 2-(3-isopropyl-2-(2-methylpyridin-4-yl)-1H-indol-5-yl)-2-methyl-1-(4-(piperidin-4-yloxy)piperidin-1-yl)propan-1-one], for which the pIC50 in assay [1] (setting [4]) was 5.83; in assay [2], 6.89; in assay [3] (setting [5]), 7.24.

With `Cc1cc(-c2[nH]c3ccc(C(C)(C)C(=O)N4CCC5(CCNC5)C4)cc3c2C(C)C)ccn1` (stereo not drawn) [Example 178, 2-(3-isopropyl-2-(2-methylpyridin-4-yl)-1H-indol-5-yl)-2-methyl-1-(2,7-diazaspiro[4.4]nonan-2-yl)propan-1-one], the pIC50 was 5.78 in assay [1] (setting [4]), 7.21 in assay [2] and 6.07 in assay [3] (setting [5]).

As to `Cc1cc(-c2[nH]c3ccc(C(C)(C)C(=O)N4CC5(CCNCC5)C4)cc3c2C(C)C)ccn1` [Example 179, 2-(3-isopropyl-2-(2-methylpyridin-4-yl)-1H-indol-5-yl)-2-methyl-1-(2,7-diazaspiro[3.5]nonan-2-yl)propan-1-one], the pIC50 was 5.31 in assay [1] (setting [4]), 7.46 in assay [2] and 5.95 in assay [3] (setting [5]).

As for `Cc1cc(-c2[nH]c3ccc(C(C)(C)C(=O)N4CCCC5(CNC5)C4)cc3c2C(C)C)ccn1` [Example 180, 2-(3-isopropyl-2-(2-methylpyridin-4-yl)-1H-indol-5-yl)-2-methyl-1-(2,6-diazaspiro[3.5]nonan-6-yl)propan-1-one], the negative-log IC50 (pIC50) in assay [1] (setting [4]) is 6.00; in assay [2], 6.83; in assay [3] (setting [5]), 6.51.

For `Cc1cc(-c2[nH]c3ccc(C(C)(C)C(=O)N4CCC5(CCNC5)CC4)cc3c2C(C)C)ccn1` [Example 181, 2-(3-isopropyl-2-(2-methylpyridin-4-yl)-1H-indol-5-yl)-2-methyl-1-(2,8-diazaspiro[4.5]decan-8-yl)propan-1-one], the figures for the pIC50 in assay [1] (setting [4]), in assay [2] and in assay [3] (setting [5]) were 5.71, 7.12 and 5.91, respectively.

On to `Cc1cc(-c2[nH]c3ccc(C(C)(C)C(=O)N4CCCCC4C4CCNCC4)cc3c2C(C)C)ccn1` (stereo not drawn) [Example 182, 1-([2,4′-bipiperidin]-1-yl)-2-(3-isopropyl-2-(2-methylpyridin-4-yl)-1H-indol-5-yl)-2-methylpropan-1-one], for which the pIC50 is 6.15 in assay [1] (setting [4]), 7.82 in assay [2] and 7.09 in assay [3] (setting [5]).

For `Cc1cc(-c2[nH]c3ccc(C(C)(C)C(=O)N4CC5CNCC5C4)cc3c2C(C)C)ccn1` (stereo not drawn) [Example 183, 1-(hexahydropyrrolo[3,4-c]pyrrol-2(1H)-yl)-2-(3-isopropyl-2-(2-methylpyridin-4-yl)-1H-indol-5-yl)-2-methylpropan-1-one], the pIC50 in assay [1] (setting [4]) is 6.41; in assay [2], 7.52; in assay [3] (setting [5]), 6.99.

For `Cc1cc(-c2[nH]c3ccc(C(C)(C)C(=O)N4CCCC5(CCNC5)C4)cc3c2C(C)C)ccn1` (stereo not drawn) [Example 184, 2-(3-isopropyl-2-(2-methylpyridin-4-yl)-1H-indol-5-yl)-2-methyl-1-(2,7-diazaspiro[4.5]decan-7-yl)propan-1-one], the values for the negative logarithm of the IC50 (pIC50) in assay [1] (setting [4]), in assay [2] and in assay [3] (setting [5]) were 6.27, 7.04 and 6.86, respectively.

Consider `Cc1cc(-c2[nH]c3ccc(C(C)(C)C(=O)N4CC5CNC5C4)cc3c2C(C)C)ccn1` (stereo not drawn) [Example 185, 1-(3,6-diazabicyclo[3.2.0]heptan-3-yl)-2-(3-isopropyl-2-(2-methylpyridin-4-yl)-1H-indol-5-yl)-2-methylpropan-1-one], for which the negative logarithm of the IC50 (pIC50) in assay [1] (setting [4]) was 4.93; in assay [2], 7.15; in assay [3] (setting [5]) it was 6.26.

As to `Cc1cc(-c2[nH]c3ccc(C(C)C(=O)NC4CCC5CNCC54)cc3c2C(C)C)ccn1` (stereo not drawn) [Example 186, 2-(3-isopropyl-2-(2-methylpyridin-4-yl)-1H-indol-5-yl)-N-(octahydrocyclopenta[c]pyrrol-4-yl)propanamide], the negative-log IC50 (pIC50) in assay [1] (setting [4]) was 6.22; in assay [2], 6.84; in assay [3] (setting [5]) it was 7.00.

In the case of `Cc1cc(-c2[nH]c3ccc(C(C)C(=O)NC4CCC5CNCC54)cc3c2C(C)C)ccn1` (stereo not drawn) [Example 187, 2-(3-isopropyl-2-(2-methylpyridin-4-yl)-1H-indol-5-yl)-N-(octahydrocyclopenta[c]pyrrol-4-yl)propanamide], the negative-log IC50 (pIC50) in assay [1] (setting [4]) was 5.87; in assay [2], 6.65; in assay [3] (setting [5]) it was 6.30.

As to `Cc1cc(-c2[nH]c3ccc(C(C)C(=O)N[C@@H]4CCNC4)cc3c2C(C)C)ccn1` (stereo partly drawn) [Example 188, 2-(3-isopropyl-2-(2-methylpyridin-4-yl)-1H-indol-5-yl)-N—((R)-pyrrolidin-3-yl)propanamide], the values for the pIC50 in assay [1] (setting [4]), in assay [2] and in assay [3] (setting [5]) were 5.58, 6.34 and 6.41, respectively.

For the molecule `Cc1cc(-c2[nH]c3ccc(C(C)C(=O)N[C@H]4CCNC4)cc3c2C(C)C)ccn1` (stereo partly drawn) [Example 189, 2-(3-isopropyl-2-(2-methylpyridin-4-yl)-1H-indol-5-yl)-N—((S)-pyrrolidin-3-yl)propanamide], the pIC50 is 5.78 in assay [1] (setting [4]), 6.57 in assay [2] and 6.61 in assay [3] (setting [5]).

Turning to `Cc1cc(-c2[nH]c3ccc(C(C)C(=O)N[C@H]4CCNC4)cc3c2C(C)C)ccn1` (stereo partly drawn) [Example 190, 2-(3-isopropyl-2-(2-methylpyridin-4-yl)-1H-indol-5-yl)-N—((S)-pyrrolidin-3-yl)propanamide], the pIC50 was 6.02 in assay [1] (setting [4]), 6.86 in assay [2] and 6.68 in assay [3] (setting [5]).

For the molecule `Cc1cc(-c2[nH]c3ccc(C(C)C(=O)NC4CN5CCC4CC5)cc3c2C(C)C)ccn1` (stereo not drawn) [Example 191, 2-(3-isopropyl-2-(2-methylpyridin-4-yl)-1H-indol-5-yl)-N-(quinuclidin-3-yl)propanamide], the pIC50 was 5.89 in assay [1] (setting [4]), 6.76 in assay [2] and 6.68 in assay [3] (setting [5]).

On to `Cc1cc(-c2[nH]c3ccc(C(C)C(=O)NC4CN5CCC4CC5)cc3c2C(C)C)ccn1` (stereo not drawn) [Example 192, 2-(3-isopropyl-2-(2-methylpyridin-4-yl)-1H-indol-5-yl)-N-(quinuclidin-3-yl)propanamide], for which the pIC50 is 5.81 in assay [1] (setting [4]), 7.15 in assay [2] and 6.85 in assay [3] (setting [5]).

As for `Cc1cc(-c2[nH]c3ccc(C(C)C(=O)NC4CCNCC4)cc3c2C(C)C)ccn1` (stereo not drawn) [Example 193, 2-(3-isopropyl-2-(2-methylpyridin-4-yl)-1H-indol-5-yl)-N-(piperidin-4-yl)propanamide], the negative-log IC50 (pIC50) is 5.47 in assay [1] (setting [4]), 6.69 in assay [2] and 6.83 in assay [3] (setting [5]).

Regarding `Cc1cc(-c2[nH]c3ccc(C(C)C(=O)NC4CCN(C(C)C)CC4)cc3c2C(C)C)ccn1` (stereo not drawn) [Example 194, 2-(3-isopropyl-2-(2-methylpyridin-4-yl)-1H-indol-5-yl)-N-(1-isopropylpiperidin-4-yl)propanamide], the pIC50 in assay [1] was 5.41; in assay [2], 6.82; in assay [3], 6.97.

Turning to `Cc1cc(-c2[nH]c3ccc(C(C)C(=O)N[C@@H]4CCCNC4)cc3c2C(C)C)ccn1` (stereo partly drawn) [Example 195, 2-(3-isopropyl-2-(2-methylpyridin-4-yl)-1H-indol-5-yl)-N—((R)-piperidin-3-yl)propanamide], the pIC50 is 6.04 in assay [1] (setting [4]), 6.56 in assay [2] and 7.12 in assay [3] (setting [5]).

`Cc1cc(-c2[nH]c3ccc(C(C)C(=O)N[C@@H]4CCCNC4)cc3c2C(C)C)ccn1` (stereo partly drawn) [Example 196, 2-(3-isopropyl-2-(2-methylpyridin-4-yl)-1H-indol-5-yl)-N—((R)-piperidin-3-yl)propanamide]: the pIC50 is 6.06 in assay [1] (setting [4]), 7.29 in assay [2] and 7.06 in assay [3] (setting [5]).

`Cc1cc(-c2[nH]c3ccc(C(C)C(=O)N4CC5CN(C)CC5C4)cc3c2C(C)C)ccn1` (stereo not drawn) [Example 197, 2-(3-isopropyl-2-(2-methylpyridin-4-yl)-1H-indol-5-yl)-1-(5-methylhexahydropyrrolo[3,4-c]pyrrol-2(1H)-yl)propan-1-one]: the pIC50 is 5.48 in assay [1] (setting [4]), 6.70 in assay [2] and 6.89 in assay [3] (setting [5]).

As for `Cc1cc(-c2[nH]c3ccc(C(C)C(=O)N4CCC5(CCN(C)C5)CC4)cc3c2C(C)C)ccn1` (stereo not drawn) [Example 198, 2-(3-isopropyl-2-(2-methylpyridin-4-yl)-1H-indol-5-yl)-1-(2-methyl-2,8-diazaspiro[4.5]decan-8-yl)propan-1-one], the negative logarithm of the IC50 (pIC50) in assay [1] (setting [4]) is 5.88; in assay [2] it was 7.34; in assay [3] (setting [5]) it was 7.14.

`Cc1cc(-c2[nH]c3ccc(C(C)C(=O)N4CCC(CN)C4)cc3c2C(C)C)ccn1` (stereo not drawn) [Example 199, 1-(3-(aminomethyl)pyrrolidin-1-yl)-2-(3-isopropyl-2-(2-methylpyridin-4-yl)-1H-indol-5-yl)propan-1-one]: the pIC50 in assay [1] (setting [4]) is 5.92; in assay [2], 6.35; in assay [3] (setting [5]), 6.52.

Consider `Cc1cc(-c2[nH]c3ccc(C(C)C(=O)N4CCCC5(CCCCC5N)C4)cc3c2C(C)C)ccn1` (stereo not drawn) [Example 200, 1-(7-amino-2-azaspiro[5.5]undecan-2-yl)-2-(3-isopropyl-2-(2-methylpyridin-4-yl)-1H-indol-5-yl)propan-1-one], for which the pIC50 in assay [1] (read-out: TLR9 IC50, HEK-Blue cells overexpressing human TLR9, ODN2006 5 nM, SEAP reporter, listed as 700) is 6.16; in assay [2] (listed as 700), 7.92; in assay [3] (read-out: TLR8 IC50, HEK-Blue cells overexpressing human TLR8, R848 15.9 μM, SEAP reporter, listed as 700) it was 7.16.

The values are drawn from patent US11420973B2, “Amide substituted indole compounds useful as TLR inhibitors” (BRISTOL-MYERS SQUIBB COMPANY, priority 2017, dated 2022).
